Measurements published in patent US6881751B2, “Medicament containing platinum complex compounds and the use thereof” (Ruprecht Karls Universitat, priority 1998, dated 2005).

Legend:
HeLa cells = test: pH dependence of the effectiveness of cytostatic agents (live cell count, trypan blue); assay type: cell-based, Human; conditions: pH 7.4 vs pH 6.8, 24 hours, FIG. 3
Procedure: The number of live cells was determined after vital staining using trypan blue in Neubauer's counting chamber.

[1] = test system: Bronchial carcinoma cells (SCLC); test: Anti-tumoral effect on a human parvocellular bronchial carcinoma in naked mice; assay type: in vivo, Nu/Nu mice, strain NMRI; conditions: 10 mg/kg intravenously, SCLC tumors about 8 mm, FIG. 1
Procedure: a) Anti-Tumoral Effect on a Human Parvocellular Bronchial Carcinoma in Naked Mice
Bronchial carcinoma cells (SCLC) were implanted under the skin of six-week-old Nu/Nu mice, strain NMRI (5×10^6 cells in 0.1 ml common salt solution). The tumors had reached a size of about 8 mm after two weeks. Then, five animals each were treated intravenously with either 0.2 ml common salt solution/[…]/1% acetone (control group) or with 10 mg/kg compound according to Example 1 in common salt solution/1% BSA/1% acetone (treated group). The tumor growth was controlled daily. The values are shown in enclosed FIG. 1.

[2] = test system: SW707 cells of a colorectal carcinoma; test: Antitumoral effect on human xenotransplants, SW707; assay type: in vivo, Nu/Nu-Swiss mice; conditions: single i.p. injection 10 mg/kg, FIG. 4B
[3] = Body weight of the xenotransplant group suffering from parvocellular pulmonary carcinoma; assay type: in vivo, Nu/Nu-Swiss mice
Procedure: The tumor sizes were determined in two directions and the relative tumor growth was calculated.
(C): Average body weights of the group suffering from parvocellular pulmonary carcinoma. The standard deviations were less than 3%.

[4] = test system: Colon carcinoma cells (SW707); test: Anti-tumoral effect on a human colon carcinoma in naked mice; assay type: in vivo, Nu/Nu mice, strain NMRI; conditions: SW707 tumors about 10 mm, FIG. 2
Description: b) Anti-Tumoral Effect of a Compound According to Example 1 on a Human Colon Carcinoma in Naked Mice Colon carcinoma cells (SW707) were implanted under the skin of 6-week-old Nu/Nu mice, strain NMRI (5×10^6 cells in common salt solution).

cell lines = test: Dependence of the cytotoxicity on the pH value, all cell lines of the table; assay type: cell-based; conditions: pH 6.8 vs pH 7.4, cell lines of the table
Procedure: Cells were plated in Linbro dishes or plates and, after 4 hours, the cells were fed with a medium which included either 2.2 g/l (pH 7.4) or 0.85 g/l (pH 6.8) NaHCO3.

[5] = test system: Human H10 cells of a parvocellular bronchial carcinoma; test: Antitumoral effect on human xenotransplants, H10; assay type: in vivo, Nu/Nu-Swiss mice; conditions: single i.p. injection 10 mg/kg, FIG. 4A

CCOC1=[S+][Pt-2]2([S]1)[S]C(OCC)=[S+]2 [Example 1, bis-[O-ethyldithiocarbanato]Platinum (II)]
pH dependence of effectiveness (HeLa cells): effective maximum in the slightly acidic range | tumor size [1]: decreased in size | effect on tumor growth [2]: tumor growth could be prevented | weight loss ([3]; mouse, in vivo, ip, 10 mg/kg): no weight loss | tumor growth ([4]; 7.5 mg/kg intravenously (treated group I)): tumor growth was slowed down

N.N.[Cl][Pt][Cl] [cisplatin]
pH dependence of effectiveness (HeLa cells): better effects in the alkaline range | effect on tumor growth [2]: no effect | pH effect on IC50 (cell lines): poorer with pH 6.8 than with pH 7.4 or there was no detectable pH effect | weight loss ([3]; day 3 after the treatment, 10 mg/kg i.p., FIG. 4C): 12% | weight loss ([3]; day 6 after the treatment, 10 mg/kg i.p., FIG. 4C): 13% | tumor growth ([4]; 10 mg/kg intravenously (treated group II)): constant tumor growth | tumor size as compared to the control group [5]: 50%
